In patent US20040191169A1, “Methods of protection from toxicity of alpha emitting elements during radioimmunotherapy” (priority 2003, published 2004):

How the values were obtained:
[1] = Diuretic therapy, alone or combined with DMPS: renal ^221Fr and ^213Bi activity after ^225Ac labeled HuM195 injection; assay type: in vivo, mice; conditions: diuretic alone i.p.; 24 hours post-injection
Description: (§1) The mice were anesthetized and then injected intravenously in the retro-orbital venous plexus with 0.5 μCi of either ^225Ac labeled HuM195 for chelation, diuresis and competitive metal blockade experiments or of ^225Ac labeled SJ25C1 for tumor burden experiments. The injected volume was 100 μl. In order to detect adequate numbers of disintegrations in tissues by use of the gamma-counter, the injected doses of ^225Ac nanogenerator, i.e., ˜30 μCi/kg, are much higher than the doses for human clinical trials with these adjuvants.
Mice were randomized to furosemide treatment, chlorthiazide (CTZ) treatment or no treatment(control)groups (5 animals per group). Furosemide and CTZ were administered intraperitoneally (i.p.). The loading doses of furosemide and CTZ were 250 mg/kg and 750 mg/kg respectively, administered one hour before ^225Ac nanogeneratorinjection. The maintenance doses were 100 mg/kg and 300 mg/kg, respectively, administered 12 hours and 24 hours after the loading dose. The controls were injected with an equal volume of saline (vehicle).
Alternatively, mice received DMPS (1.2 mg/ml in drinking water) and either furosemide or CTZ i.p using the same dose schedule as above. The controls received regular drinking water and were injected with an equal volume of saline. The animals were sacrificed at 24 hours post-injection with the labeled antibody and the mean activity (% ID/g) of ^225Ac, ^221Fr and ^213Bi in blood and kidneys was calculated for each experimental group, as described above.

[2] = Free metal scavenging with DMPS or DMSA: tissue ^213Bi and ^221Fr activity after ^225Ac labeled HuM195 injection; assay type: in vivo, mice; conditions: for renal ^213Bi activity: chelator in drinking water, mean (SE); for renal ^221Fr activity versus untreated controls: at either 6 hours or 72 hours post-injection
Description: as §1
Animals received either 2,3-dimercapto-1-propanesulfonic acid (DMPS; Sigma, St. Louis, Mo.) or meso-2,3-dimercaptosuccinic acid (DMSA; Sigma, St. Louis, Mo.) in drinking water (1.2 mg/ml and 1.5 mg/ml, respectively), starting one day before injection with ^225Ac nanogenerator and continued until the animals were sacrificed. The control animals received regular drinking water. Animals (n=5 per group) were sacrificed at 6 and 72 hours post-injection by carbon-dioxide asphyxiation.
Samples of blood taken by cardiac puncture, of kidneys, of liver and of small intestine were removed. The organs were washed in distilled water, blotted dry on gauze, weighed, and the activity of ^221Fr (185-250 keV window) and ^213Bi (360-480 keV window) was measured using a gamma counter (COBRA II, Packard Instrument Company, Meriden, Conn.). Samples of the injectate (100 μl) were used as decay correction standards. Adjustment was made for the small percentage of bismuth activity that counted in the francium activity window. Percentage injected dose of ^225Ac, ^221Fr and ^213Bi per gram of tissue weight (% ID/g) was calculated for each animal at the time of sacrifice, using the equation (78):
A2(0)=[A2−A2(eq)·(e^−λ2t−e^−λ1t)]·e^λ2t
where λ1 and λ2 are the decay constants of Ac and Bi, respectively. The mean % ID/g was determined for each experimental group.

[3] = Tumor burden experiment: ^213Bi activity in kidneys and femurs after ^225Ac labeled SJ25C1, disseminated human Daudi lymphoma; assay type: in vivo, SCID mice
Description: Disseminated human Daudi lymphoma (84) treated with ^225Ac labeled anti-CD19, was used as the model system. SCID mice, 10-12 weeks old, were randomized to “low tumor burden” or 7 days growth of tumor, “high tumor burden” or 30 days growth of tumor or “high tumor burden+DMPS” group or 30 days growth of tumor and treated with 1.2 mg/ml DMPS in drinking water, starting one day before injection with ^225Ac nanogenerator. All mice were injected intravenously with 5×10^6 Daudi lymphoma cells in 0.1 ml phosphate buffered saline (PBS). The “low burden” animals were injected with the tumor cells 23 days after the “high burden” ones. The animals were checked daily for the onset of hind-leg paralysis. 30 days after injection of tumor cells in the “high burden” animals and 7 days after injection for the “low burden” group, all animals were injected retro-orbitally with 0.5 μCi of ^225Ac labeled SJ25C1 in 100 μl.
The animals (5 per group) were sacrificed at 24 hours post-injection and the mean ^225Ac, ^221Fr and ^213Bi activity (% ID/g) in blood, femurs and kidneys was calculated for each experimental group. The % of human-CD20 positive cells in the femoral bone marrow was estimated in one representative animal from the “high and low burden” groups by flow cytometric staining with phycoerythrin (PE)-conjugated anti-human CD20 (BD, San Jose, Calif.) and compared to that of a non tumor-bearing mouse of the same strain.

[4] = In vivo biodistribution of [Ac]Hum195 at 24 hours in DMPS-treated and untreated monkeys; design: species or system cynomolgus monkeys; conditions: one treated versus one untreated monkey, DMPS in water 24 hours plus one i.v. dose 90 min before sacrifice
Description: Two cynomolgus monkeys weighing about 7 kg were injected with 25 μCi of Ac-225 nanogenerators on HuM195 antibodies. One monkey received water and the other received DMPS in water for 24 hours and one dose of DMPS intravenously 90 min before sacrifice. At 24 hours the two monkeys were sacrificed and the kidneys examined for Bi-213 daughters. A 70% reduction in Bi-213 in the kidneys of the treated monkey was found (FIG. 7).

[5] = cited from earlier work
CD33 antigen = CD33 antigen (Homo sapiens, UniProt P20138); conditions: on the order of; cited from earlier work
Chain of CD33 antigen (P20138 18-364): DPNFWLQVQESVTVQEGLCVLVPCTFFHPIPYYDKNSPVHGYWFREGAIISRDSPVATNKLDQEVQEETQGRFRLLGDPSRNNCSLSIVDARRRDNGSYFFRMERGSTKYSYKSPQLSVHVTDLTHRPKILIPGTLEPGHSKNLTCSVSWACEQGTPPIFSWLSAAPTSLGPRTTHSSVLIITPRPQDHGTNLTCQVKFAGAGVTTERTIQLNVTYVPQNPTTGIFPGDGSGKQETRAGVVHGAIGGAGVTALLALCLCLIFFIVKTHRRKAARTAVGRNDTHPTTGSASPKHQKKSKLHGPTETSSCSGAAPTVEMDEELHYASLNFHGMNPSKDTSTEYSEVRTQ

[6] = Competitive metal blockade with bismuth subnitrate: renal ^213Bi and ^221Fr activity after ^225Ac labeled HuM195 injection; assay type: in vivo, mice
Description: as §1
Mice (5 per group) were injected i.p. with 200 μl of 1% bismuth subnitrate (BSN; Sigma, St. Louis, Mo.) suspension (100 mg/kg) or an equal volume of saline (controls) 4 hours before ^225Ac nanogenerator injection. These animals were sacrificed at 6 hours post-injection with the ^225Ac nanogenerator. Alternatively, mice were injected i.p. with 200 μl of 1% BSN suspension, 4 hours before and 8 and 20 hours after ^225Ac nanogenerator injection (n=5) or an equal volume of saline (n=5). These animals were sacrificed 24 hours after ^225Ac nanogenerator injection. The mean % ID/g of ^225Ac, ^221Fr and ^213Bi in blood and kidneys at sacrifice-time was calculated for each experimental group.

| Molecule | 24 hour renal ^213Bi activity [1] [% ID/g] | 24 hour renal ^221Fr activity [1] [% ID/g] | mean blood ^213Bi activity ([2]; 6 hours post-injection) [% ID/g] | renal ^213Bi activity ([2]; 6 hours post-injection) [% ID/g] | mean blood ^213Bi activity ([2]; 72 hours post-injection) [% ID/g] | renal ^213Bi activity ([2]; 72 hours post-injection) [% ID/g] | renal ^221Fr activity versus untreated controls [2] | extent of non-protein sulfhydryl formation in human plasma [5] [%] | also measured |
| --- | --- | --- | --- | --- | --- | --- | --- | --- | --- |
| NS(=O)(=O)c1cc2c(cc1Cl)N=CNS2(=O)=O [CTZ, chlorthiazide] | 18.6±1.6 | 9.7±0.4 | – | – | – | – | – | – | – |
| O=S(=O)(O)CC(S)CS (stereo not shown) [DMPS, 2,3-dimercapto-1-propanesulfonic acid] | – | – | 9.2±0.5 | 38.6±5.5 | 5.5±0.1 | 21.7±2.1 | not significantly different | 37 | relative effectiveness in reducing the renal ^213Bi activity ([2]; comparison between chelators): significantly more effective than DMSA; kidney to femur activity ratio for ^213Bi ([3]; DMPS treated animals bearing the target tumor): significantly lower; renal ^213Bi activity ([3]; high tumor burden + DMPS 1.2 mg/ml in drinking water, 24 hours post-injection): 16.7±2.7 % ID/g; femur ^213Bi activity ([3]; high tumor burden + DMPS, 24 hours post-injection): 4.8±0.6 % ID/g; reduction in Bi-213 in the kidneys [4]: 70% |
| NS(=O)(=O)c1cc(C(=O)O)c(NCc2ccco2)cc1Cl [furosemide] | 18.3±0.6 | 11.8±0.4 | – | – | – | – | – | – | – |
| O=C(O)[C@@H](S)[C@@H](S)C(=O)O [DMSA, meso-2,3-dimercaptosuccinic acid] | – | – | 5.8±0.5 | 66.0±1.9 | 4.8±0.6 | 41.4±7.3 | not significantly different | 8 | – |
| HuM195: humanized anti-CD33 IgG1 monoclonal antibody | – | – | – | – | – | – | – | – | affinity (CD33 antigen): 10^−9 to 10^−10 M |
| O=[N+]([O-])[O-].O=[N+]([O-])[O-].O=[N+]([O-])[O-].O=[N+]([O-])[O-].[Bi+3].[Bi+3].[Bi+3].[Bi+3].[Bi+3].[O-2].[OH-].[OH-].[OH-].[OH-].[OH-].[OH-].[OH-].[OH-].[OH-] [BSN, bismuth subnitrate] | – | – | – | – | – | – | – | – | renal ^213Bi activity ([6]; 6 hours post-injection, BSN 100 mg/kg i.p. 4 hours before): 46.1±1.4 % ID/g; renal ^213Bi activity ([6]; 24 hours post-injection, BSN i.p. 4 hours before and 8 and 20 hours after): 48.2±0.6 % ID/g; renal ^221Fr activity ([6]; at either time-point (6 hours, 24 hours)): unaltered |
